Source: patent US12617744B2, “Production method for reduced coenzyme Q10 form-II type crystal or crystalline solid thereof” (KANEKA CORPORATION, priority 2021, dated 2026)

Legend:
[1] = Median diameter measurement with particle size distribution analyzer; assay type: physicochemical; conditions: reduced coenzyme Q10 crystal obtained; Partica LA-960
Protocol: The median diameters of reduced coenzyme Q10 crystals obtained in Examples and Comparative Example were measured using the device described below. • Particle size distribution analyzer: Partica LA-960 <Percentage of Form II Crystal in Reduced Coenzyme Q10 Crystal>

[2] = Evaluation of slurry filterability by constant pressure filtration (average specific filtration resistance); assay type: physicochemical; conditions: slurry cooled to 1° C., filtrate volume 200 mL, filtration pressure 0.1 hPa
Protocol: The slurries obtained in Examples and Comparative Example were subjected to constant pressure filtration with a filtrate volume of 200 mL and a filtration pressure of 0.1 hPa and the filtration rate was measured. The average specific filtration resistance (αav) was calculated and used for the evaluation of filterability.

[3] = compared with conventional reduced coenzyme Q10 Form I crystal; cited from earlier work
[4] = Saturation concentration of crystal forms in alcohol; assay type: physicochemical; conditions: Form II crystal compared with Form I crystal
Description: The alcohol is preferably a monohydric alcohol having 1 to 5 carbon atoms. Examples of a monohydric alcohol having 1 to 5 carbon atoms include methanol, ethanol, n-propanol, isopropanol, n-butanol, isobutanol, and n-pentanol. As the alcohol, ethanol is particularly preferable because the saturation concentration of Form II crystal is sufficiently lower than the saturation concentration of Form I crystal and is easy to handle. As the alcohol, those exemplified above may be used alone, or two or more thereof may be mixed and used.

[5] = compared with oxidized coenzyme Q10; cited from earlier work

Compound	Median diameter [1]	average specific filtration resistance (αav) [2]	stability of crystal form [3]	saturation concentration in an alcohol [4]	oral absorbability [5]
COc1c(O)c(C)c(C/C=C(\C)CC/C=C(\C)CC/C=C(\C)CC/C=C(\C)CC/C=C(\C)CC/C=C(\C)CC/C=C(\C)CC/C=C(\C)CC/C=C(\C)CCC=C(C)C)c(O)c1OC [Comparative Example 1, reduced coenzyme Q10]	68.2 μm	3.4×10^10 m/kg	–	–	–
COc1c(O)c(C)c(C/C=C(\C)CC/C=C(\C)CC/C=C(\C)CC/C=C(\C)CC/C=C(\C)CC/C=C(\C)CC/C=C(\C)CC/C=C(\C)CC/C=C(\C)CCC=C(C)C)c(O)c1OC [Example 1, reduced coenzyme Q10]	115.3 μm	0.47×10^10 m/kg	–	–	–
COc1c(O)c(C)c(C/C=C(\C)CC/C=C(\C)CC/C=C(\C)CC/C=C(\C)CC/C=C(\C)CC/C=C(\C)CC/C=C(\C)CC/C=C(\C)CC/C=C(\C)CCC=C(C)C)c(O)c1OC [Example 2, reduced coenzyme Q10]	87.6 μm	0.98×10^10 m/kg	–	–	–
COc1c(O)c(C)c(C/C=C(\C)CC/C=C(\C)CC/C=C(\C)CC/C=C(\C)CC/C=C(\C)CC/C=C(\C)CC/C=C(\C)CC/C=C(\C)CC/C=C(\C)CCC=C(C)C)c(O)c1OC [Example 3, reduced coenzyme Q10]	107.3 μm	0.48×10^10 m/kg	–	–	–
COc1c(O)c(C)c(C/C=C(\C)CC/C=C(\C)CC/C=C(\C)CC/C=C(\C)CC/C=C(\C)CC/C=C(\C)CC/C=C(\C)CC/C=C(\C)CC/C=C(\C)CCC=C(C)C)c(O)c1OC [reduced coenzyme Q10 Form II crystal, reduced coenzyme Q10]	–	–	much more stable than the conventional reduced coenzyme Q10	lower than the saturation concentration of a Form I crystal	–
COc1c(O)c(C)c(C/C=C(\C)CC/C=C(\C)CC/C=C(\C)CC/C=C(\C)CC/C=C(\C)CC/C=C(\C)CC/C=C(\C)CC/C=C(\C)CC/C=C(\C)CCC=C(C)C)c(O)c1OC [reduced coenzyme Q10]	–	–	–	–	higher oral absorbability than that of oxidized coenzyme Q10
